Source: patent US5814600A, “Method and composition for treatment of insulin requiring mammals” (Amylin Pharmaceuticals Inc., priority 1994, dated 1998)
Where two headings read alike, the source gives them in different places. Values belong to the compound of their own block, whether it stands above or below them.

Key:
[1] = system: patients with juvenile-onset diabetes; assay: 14-day clinical study: adverse events; format: in vivo, human
Description: In a 14-day double-blind, placebo controlled clinical study, for example, patients with juvenile-onset diabetes who continued their usual insulin therapy and self-injected tripro-amylin three times daily had lower average blood glucose levels after a test meal than did patients who received insulin and placebo. […] See also Table 2 below. […] These thrice-daily doses of tripro-amylin reflect per day dosages of, respectively, 90, 300, and 900 micrograms per patient. For a patient of average weight, about 70 kg, these reflect doses of 1.3 μg/kg/day, 4.3 μg/kg/day, and 12.9 μg/kg/day. An average per day insulin dose is about 50 units, or 2000 micrograms.
The only adverse events which led a limited number of patients to discontinue the study were gastrointestinal side effects, mainly nausea, which were more frequent only in those patients receiving higher doses of drug. About 20% of patients in the mid- and high-dose groups who reported nausea also experienced vomiting on one or more occasions.

[2] = system: patients with juvenile-onset diabetes; assay: 14-day clinical study: insulin challenge to induce hypoglycemia; format: in vivo, human; settings: after overnight fast, after 14 days of therapy
Description: Following an overnight fast, patients in the 14-day study were challenged with insulin twice: prior to the start of dosing, and after 14 days of placebo or tripro-amylin therapy. The insulin challenge was designed to pharmacologically induce hypoglycemia in a controlled and reproducible manner.

rat soleus muscle = format: cell-based
Experimental: Male Harlan Sprague Dawley rats of approximately 200 g mass were used in order to maintain soleus muscle mass less than 40 mg. The animals were fasted for 4 hours prior to sacrifice by decapitation. The skin was stripped from the lower limb which was then pinned out on cork board. The tendo achilles was cut just above os […]. gastrocnemius reflected out from the posterior aspect of the tibia. M. soleus, a small […], 0.55 mm thick flat muscle on the bone surface of m. gastrocnemius was then stripped clear and the perimysium cleaned off using fine scissors and forceps. M. soleus was then split into equal parts using a blade passed antero-posteriorly through the belly of the muscle to obtain a total of 4 muscle strips from each animal. After dissecting the muscle from the animal, it was kept for a short period in physiological saline. The muscle was not held under tension, as reported in other methodologies since in our hands this had no demonstrable effect on the insulin-sensitivity of radioglucose incorporation into glycogen. Muscles were added to 50 mL Erlenmeyer flasks containing 10 mL of a pregassed Krebs-Ringer bicarbonate buffer containing (mM) NaCl 118.5; KCl 5.94; CaCl2 2.54; MgSO4 1.19; KH2 PO4 1.19; NaHCO3 25; glucose 5.5; and recombinant human insulin (Humulin-R, Eli Lilly, Ind.) and either synthetic rat (Bachem, Torrance, Calif. Lot# ZG485) or synthetic human amylin (Bachem, Torrance, Calif. Lot# ZH144) as detailed below. Methods used to determine the nature and purity of rat and human amylin included quantitative amino acid analysis, gas phase amino acid sequencing, reverse phase HPLC and fast-atom-bombardment mass spectrometry. […] Incorporation of mercury into rat amylin may be a feature of many commercially available batches that have already been used in published studies. Since the peptide was bioactive, its action in muscle was expected to at least qualitatively mimic that of true rat amylin. The mercuric method of cyclization was not used in the synthesis of human amylin, which is found by electrospray ionization mass spectrometry and atomic absorption spectroscopy to be mercury-free. Muscles were assigned to different flasks so that the four muscle pieces from each animal were evenly distributed among the different assay conditions. The incubation media were gassed by gently blowing carbogen (95% O2, 5% CO2) over the surface while it was continuously agitated at 37° C. in an oscillating water bath. pH of gassed media at 37° C. was verified as being between 7.1 and 7.4. After a half-hour preincubation, 0.5 μCi of [U-^14 C]-glucose was added to each flask for a further 60 minutes. Each muscle piece was then rapidly removed, trimmed of tendons, blotted, frozen in liquid N2, weighed and then stored at […] for subsequent determination of ^14 C-glycogen. The incubation medium was also frozen for subsequent analysis. The concentration of human amylin present in the medium at the end of the incubation was determined by radioimmunoassay in surfactant-containing buffer. For both human and rat amylin, the actual mass added to the incubation medium was determined by quantitative amino-acid analysis. Each frozen muscle specimen was placed in a vial with 1 mL 60% potassium hydroxide (wt/vol) and digested at 70° C. for 45 minutes under intermittent vigorous agitation. Dissolved glycogen was precipitated onto the walls of the vial by addition of 3 mL absolute ethanol and overnight cooling at -20° C. After centrifugation for 30 minutes at 2000 x-- g, the supernatant was gently aspirated, the glycogen was again washed with ethanol and centrifuged, the ethanol aspirated and the precipitate dried under vacuum. It was important to evaporate all ethanol to avoid quenching during scintillation counting. The remaining glycogen was redissolved in 1 mL water and 4 mL scintillation fluid and counted for ^14 C. […]

[3] = system: streptozotocin-diabetic rats; assay: Liver glycogen in insulin-treated streptozotocin diabetic rats, daily s.c. amylin replacement; format: in vivo, rat; settings: STZ diabetic rats, insulin replacement only
Experimental: There were 68 male Harlan Sprague Dawley rats (mass 301±3 g) in 8 treatment groups. Animals were housed at 22.7±0.8° C. in a 12:12 hour light:dark cycle (experiments being performed during the light cycle) and fed and watered ad libitum (Diet LM-485, Teklad, Madison, Wis.). The rats were sacrificed for harvesting of livers 4 to 5 hours into the light cycle.
Animals were injected with streptozotocin (Sigma Chemical Company, St Louis, Mo.: Sigma 50130) dissolved in water in a dose of 65 mg/kg into the lateral tail vein. […] Maintaining diabetic rats in this metabolic state optimizes survival. Following one week of established diabetes, animals received once daily s.c. injections of amylin vehicle (water for injection) for 5 days given at the time of the insulin injection.
These animals were treated identically to those in group 1 except that the daily subcutaneous injection contained 3 μg (n=5); 10 μg (n=12); 30 μg (n=5); 100 μg (n=5) or 300 μg (n=5) of rat amylin (Bachem lot# WG485^2/). The bioactivity of the peptide used in these experiments was first verified by bioassay, using inhibition of insulin-stimulated radioglucose incorporation into glycogen in the isolated stripped rat soleus muscle. […] The insulin dose in each of the groups of diabetic animals averaged 1.67 U/animal/day. There were no other observable differences in the required management of the different groups.
These animals were derived from the same stock and housed under the same conditions for the same time as those in groups 1-6, but were given no injections. 24 hours after the fifth daily injection of amylin or water (or an equivalent time after admission to the vivarium in the case of group 7 rats), the non-fasted rats were killed by decapitation and the livers immediately removed and frozen in liquid N2, weighed and stored for subsequent determination of glycogen concentration.
Whole livers were powdered while frozen. Approximately 200 mg of powder was further homogenized in 1.0 mL of 0.6M perchloric acid to denature enzymes. 200 μL of the homogenate was neutralized with 0.5 volumes of 1.0M KHCO3 in either of two acetate buffer solutions, one containing 2.0 mL of 200 mM acetate (pH4.8), the other containing the same but with 18.5 U/mL of amyloglucosidase (EC5 3.2.1.3, from Aspergillus nicer, Sigma A3423, Sigma Chemical Company, St Louis, Mo.) added. Following at least 20 minutes incubation at 23° C., the supernatants were assayed for glucose in an analyzer using D-glucose oxidase immobilized enzyme chemistry (Analyzer model 2300-STAT, YSI, Yellow Springs, Ohio). Purified rabbit liver glycogen (Sigma G8876) used as a standard indicated 98±4% recovery of dissolved glycogen and linearity within the range of observed liver glycogen concentrations (r=0.9994). All reagents were of analytical grade or better.
Statistical comparisons were by Student's t-test routines contained in the SYSTAT system (Systat, Evanston, Ill.). All results are reported as means ± standard error of the mean.

[4] = 30 micrograms 3 times daily, 18 patients starting study
[5] = 100 micrograms 3 times daily, 23 patients starting study
[6] = 300 micrograms 3 times daily, 21 patients starting study

Compound: CC[C@H](C)[C@H](NC(=O)[C@@H]1CCCN1C(=O)CNC(=O)[C@H](Cc1ccccc1)NC(=O)[C@H](CC(N)=O)NC(=O)[C@H](CC(N)=O)NC(=O)[C@H](CO)NC(=O)[C@H](CO)NC(=O)[C@H](Cc1c[nH]cn1)NC(=O)[C@@H](NC(=O)[C@H](CC(C)C)NC(=O)[C@H](Cc1ccccc1)NC(=O)[C@H](CC(N)=O)NC(=O)[C@H](C)NC(=O)[C@H](CC(C)C)NC(=O)[C@H](CCCNC(=N)N)NC(=O)[C@H](CCC(N)=O)NC(=O)[C@@H](NC(=O)[C@H](C)NC(=O)[C@@H]1CSSC[C@H](NC(=O)[C@@H](N)CCCCN)C(=O)N[C@@H](CC(N)=O)C(=O)N[C@@H]([C@@H](C)O)C(=O)N[C@@H](C)C(=O)N[C@@H]([C@@H](C)O)C(=O)N1)[C@@H](C)O)C(C)C)C(=O)N[C@@H](CC(C)C)C(=O)N1CCC[C@H]1C(=O)N1CCC[C@H]1C(=O)N[C@H](C(=O)N[C@@H](CC(N)=O)C(=O)N[C@H](C(=O)NCC(=O)N[C@@H](CO)C(=O)N[C@@H](CC(N)=O)C(=O)N[C@H](C(=O)N[C@@H](Cc1ccc(O)cc1)C(N)=O)[C@@H](C)O)C(C)C)[C@@H](C)O [tripro-amylin, ^25,28,29 Pro-human-amylin]
- side effect profile, measures of safety ([1]; 14-day tests): all measures of safety were satisfactory
- Patients reporting any gastrointestinal symptoms [1, 4]: 5
- Patients reporting nausea for more than 7 days [1, 4]: 1
- Patients reporting other events resulting in early discontinuation [1, 4]: 0
- Patients who withdrew from the study with nausea [1, 4]: 1
- Patients reporting any gastrointestinal symptoms [1, 5]: 13
- Patients reporting nausea for more than 7 days [1, 5]: 8
- Patients reporting other events resulting in early discontinuation [1, 5]: 0
- Patients who withdrew from the study with nausea [1, 5]: 1
- Patients reporting any gastrointestinal symptoms [1, 6]: 20
- Patients reporting nausea for more than 7 days [1, 6]: 11
- Patients reporting other events resulting in early discontinuation [1, 6]: 0
- Patients who withdrew from the study with nausea [1, 6]: 8
- patients who reported nausea and also experienced vomiting on one or more occasions ([1]; mid- and high-dose groups): About 20%
- glucose response to insulin challenge compared to placebo group [2]: did not measurably alter the glucose reponse

- EC50 (rat soleus muscle; [amylin] 0 nM (nominal), read-out: Insulin dose response: EC50, Mean ± log SE (converted)): 1.16 ± 0.1 nM
- EC50 (rat soleus muscle; [amylin] 3 nM (nominal), read-out: Insulin dose response: EC50, Mean ± log SE (converted)): 0.78 ± 0.12 nM
- EC50 (rat soleus muscle; [amylin] 10 nM (nominal), read-out: Insulin dose response: EC50, Mean ± log SE (converted)): 1.52 ± 0.15 nM
- EC50 (rat soleus muscle; [amylin] 30 nM (nominal), read-out: Insulin dose response: EC50, Mean ± log SE (converted)): 1.33 ± 0.2 nM
- EC50 (rat soleus muscle; absence of amylin, pooled from 7 assays, ±0.07 log units, read-out: EC50 of the insulin response): 1.05 nM
Compound: insulin: recombinant human insulin (Humulin-R, Eli Lilly) in soleus assay; Humulin-Ultralente for daily treatment of diabetic rats
- Insulin dose response: Maximal response, Mean (rat soleus muscle; [amylin] 0 nM (nominal)): 4.09 μmol/g wet tissue/hr
- Insulin dose response: Maximal response, Mean (rat soleus muscle; [amylin] 3 nM (nominal)): 3.45 μmol/g wet tissue/hr
- Insulin dose response: Maximal response, Mean (rat soleus muscle; [amylin] 10 nM (nominal)): 3.12 μmol/g wet tissue/hr
- Insulin dose response: Maximal response, Mean (rat soleus muscle; [amylin] 30 nM (nominal)): 2.13 μmol/g wet tissue/hr
- Insulin dose response: Maximal response, Mean (rat soleus muscle; [amylin] 100 nM (nominal)): 1.15 μmol/g wet tissue/hr
- Insulin dose response: Maximal response, Mean (rat soleus muscle; [amylin] 300 nM (nominal)): 0.93 μmol/g wet tissue/hr
- increment in rate of glycogen labelling (rat soleus muscle; insulin dose response in absence of amylin, pooled from 7 assays): 3.7 fold
- decrease in liver glycogen compared to normal rats ([3]; fed state): ~35%
- liver glycogen concentration ([3]; normal rats 8.6 mg/g): 5.6 mg/g

- EC50 (rat soleus muscle; 4 h): 0.438 nM
Compound: CC[C@H](C)[C@H](NC(=O)[C@H](C)NC(=O)CNC(=O)[C@H](Cc1ccccc1)NC(=O)[C@H](CC(N)=O)NC(=O)[C@H](CC(N)=O)NC(=O)[C@H](CO)NC(=O)[C@H](CO)NC(=O)[C@H](Cc1c[nH]cn1)NC(=O)[C@@H](NC(=O)[C@H](CC(C)C)NC(=O)[C@H](Cc1ccccc1)NC(=O)[C@H](CC(N)=O)NC(=O)[C@H](C)NC(=O)[C@H](CC(C)C)NC(=O)[C@H](CCCNC(=N)N)NC(=O)[C@H](CCC(N)=O)NC(=O)[C@@H](NC(=O)[C@H](C)NC(=O)[C@@H]1CSSC[C@H](NC(=O)[C@@H](N)CCCCN)C(=O)N[C@@H](CC(N)=O)C(=O)N[C@@H]([C@@H](C)O)C(=O)N[C@@H](C)C(=O)N[C@@H]([C@@H](C)O)C(=O)N1)[C@@H](C)O)C(C)C)C(=O)N[C@@H](CC(C)C)C(=O)N[C@@H](CO)C(=O)N[C@@H](CO)C(=O)N[C@H](C(=O)N[C@@H](CC(N)=O)C(=O)N[C@H](C(=O)NCC(=O)N[C@@H](CO)C(=O)N[C@@H](CC(N)=O)C(=O)N[C@H](C(=O)N[C@@H](Cc1ccc(O)cc1)C(N)=O)[C@@H](C)O)C(C)C)[C@@H](C)O [human amylin]
